Assay: physchem
Settings: octanol/water

SMILES | logD
C[C@H]1[C@H](c2ccc(OCCCN3CCCC3)cc2)Oc2ccccc2S1(=O)=O | 2.2
Cc1nc2ccccc2c(=O)n1-c1ccc(OCCCN2CCCC2)cc1 | 1.7
CCc1nc2ccccc2c(=O)n1-c1ccc(OCCCN2CCCC2)cc1 | 2.4
CC(C)c1nc2ccccc2c(=O)n1-c1ccc(OCCCN2CCCC2)cc1 | 2.8
O=c1c2ccccc2nc(-c2ccccc2)n1-c1ccc(OCCCN2CCCC2)cc1 | 3.4
Cc1cccc2nc(C)n(-c3ccc(OCCCN4CCCC4)cc3)c(=O)c12 | 2.2
CCCc1nc2ccccc2c(=O)n1-c1ccc(OCCCN2CCCC2)cc1 | 2.8
O=c1c2ccccc2ncn1-c1ccc(OCCCN2CCCC2)cc1 | 1.6
CC[C@@H]1Sc2ccccc2O[C@@H]1c1ccc(OCCCN2CCCC2)cc1 | 3.8
COc1cccc2c1S(=O)(=O)C(C)C(c1ccc(OCCCN3CCCC3)cc1)O2 (stereo not drawn) | 2.2
COc1cccc2c1OC(c1ccc(OCCCN3CCCCC3)cc1)C(C)S2(=O)=O (stereo not drawn) | 2.7
C[C@H]1Sc2ccccc2O[C@@H]1c1ccc(OCCCN2CCCC2)cc1 | 3.3
COc1cccc2c1OC(c1ccc(OCCCN3CCC[C@H](C)C3)cc1)C(C)S2(=O)=O (stereo partly drawn) | 3.3
CC1=C(c2ccc(OCCCN3CCCC3)cc2)Oc2ccccc2S1(=O)=O | 1.9
C[C@@H]1Sc2ccccc2O[C@@H]1c1ccc(OCCCN2CCCC2)cc1 | 3.3
COc1cccc2c1OC(c1ccc(OCCCN3CCC[C@H]3C)cc1)C(C)S2(=O)=O (stereo partly drawn) | 2.6
COc1ccc2c(c1)OC(c1ccc(OCCCN3CCCC3)cc1)C(C)S2(=O)=O (stereo not drawn) | 2.2
COc1cccc2c1OC(c1ccc(OC3CCN(C4CCC4)CC3)cc1)C(C)S2(=O)=O (stereo not drawn) | 3.3
COc1cccc2c1OC(c1ccc(OCCCN3CCC[C@@H]3C)cc1)C(C)S2(=O)=O (stereo partly drawn) | 2.6
c1ccc([C@@H]2Sc3ccccc3O[C@@H]2c2ccc(OCCCN3CCCC3)cc2)cc1 | 4.5
COc1ccc2c(c1)S(=O)(=O)C(C)C(c1ccc(OCCCN3CCCC3)cc1)O2 (stereo not drawn) | 2.2
Cc1ccc(-c2cc3sc(N4CCC(N5CCCCC5)CC4)nc3cn2)cn1 | 1.4

SMILES | logD
N#Cc1cncc(-c2cc3sc(N4CCC(N5CCCCC5)CC4)nc3cn2)c1 | 1
COc1cc(-c2cnc3nc(N4CCC(N5CCCCC5)CC4)sc3c2)ccn1 | 1.4
COc1ccc(-c2cnc3nc(N4CCC(N5CCCCC5)CC4)sc3c2)cn1 | 1.4
Nc1cnc(-c2cnc3nc(N4CCC(N5CCCCC5)CC4)sc3c2)cn1 | -0.1
Cc1ccc(-c2cnc3nc(N4CCC(N5CCCCC5)CC4)sc3c2)cn1 | 1.2
CC(=O)Nc1ccc(-c2cnc3nc(N4CCC(N5CCCCC5)CC4)sc3c2)cn1 | 0.6
O=c1ccc(-c2cnc3nc(N4CCC(N5CCCCC5)CC4)sc3c2)c[nH]1 | 1.2
Fc1cc(-c2cc3sc(N4CCC(N5CCCCC5)CC4)nc3cn2)ccn1 | 1.7
COc1cc(-c2cc3sc(N4CCC(N5CCCCC5)CC4)nc3cn2)ccn1 | 1.6
Fc1ccc(-c2cc3sc(N4CCC(N5CCCCC5)CC4)nc3cn2)cn1 | 1.7
c1ncc(-c2cc3sc(N4CCC(N5CCCCC5)CC4)nc3cn2)cn1 | 0.5
Nc1ccc(-c2cnc3nc(N4CCC(N5CCCCC5)CC4)sc3c2)cn1 | 0.7
Nc1cnc(-c2cc3sc(N4CCC(N5CCCCC5)CC4)nc3cn2)cn1 | 0.2
c1ncc(-c2cnc3nc(N4CCC(N5CCCCC5)CC4)sc3c2)cn1 | 0.3
COc1ccc(-c2cc3sc(N4CCC(N5CCCCC5)CC4)nc3cn2)cn1 | 1.6
Nc1ccc(-c2cc3sc(N4CCC(N5CCCCC5)CC4)nc3cn2)cn1 | 0.9
CC(=O)Nc1ccc(-c2cc3sc(N4CCC(N5CCCCC5)CC4)nc3cn2)cn1 | 0.8
Oc1ccc(-c2cc3sc(N4CCC(N5CCCCC5)CC4)nc3cn2)cn1 | 1.4
N#Cc1cncc(-c2cnc3nc(N4CCC(N5CCCCC5)CC4)sc3c2)c1 | 0.8
Fc1ncccc1-c1cc2sc(N3CCC(N4CCCCC4)CC3)nc2cn1 | 1.7
Fc1cc(-c2cnc3nc(N4CCC(N5CCCCC5)CC4)sc3c2)ccn1 | 1.5

Source: ChEMBL document CHEMBL1821550 (Bioorg Med Chem Lett, 2011)
